Laboratory results reported in patent US20020193425A1, “Cancer chemopreventative compounds and compositions and methods of treating cancers” (priority 2001, published 2002).
Converted amounts (≈) assume the structure as drawn.

Experiments:
HL-60 = experiment: NBT-reduction differentiation assay, leukemic panel; assay type: cell-based, human; conditions: 4 days
Experimental: (§1) Cell lines were tested using a 4-day incubation protocol, unless otherwise specified.
2) NBT/NSE/SE. Evaluation of NBT reduction was used to assess the ability of sample-treated cells to produce superoxide when challenged with TPA. A 1:1 (v/v) mixture of a cell suspension (10^6 cells) and TPA/NBT solution (2 mg/ml NBT and 1 μg/ml TPA in phosphate buffer saline (PBS)) was incubated for 1 h at 37° C. Then, cells were smeared on glass slides, and counterstained with 0.3% (w/v) safranin O in methanol. Positive cells reduce NBT yielding intracellular black-blue formazan deposits. NSE/SE are monocytic/granulocytic esterases that can be visualized by cytochemical staining using commercially available kits (α-Naphthyl Acetate Esterase and Naphthol As-D Chloroacetate Esterase kits, Sigma Chemical Co., St. Louis, Mo.). Positive-stained cells were quantified by microscopic examination of >200 cells. Results were expressed as a percentage of positive cells.
Concentration-dependent effect of brusatol on: (a) NBT-reduction (monocyte/granulocyte marker) of HL-60, K562, NB4, U937, and BV173 and (b) NSE expression (monocyte marker) in K562, Kasumi-1, NB4, and BV173 cells, respectively. Data points are the mean of duplicate samples.

[1] = Cytotoxicity, viability by Trypan blue exclusion; conditions: human, K562 cells
Experimental: (§6) HL-60, K562, U937, Reh and Daudi cells were obtained from the American Type Culture Collection (Rockville, Md.). Kasumi-1, NB4, BV173, SUPB13, and RS4;11 cells were provided by the Section of Hematology/Oncology, University of Illinois College of Medicine, Chicago, Ill. All cell lines were maintained in suspension culture using RPMI 1640 medium supplemented with 10% heat-inactivated fetal bovine serum, 100 units of penicillin/ml and 100 μg of streptomycin/ml at 37° C. in a humidified atmosphere of 5% CO2 in air. All cells were routinely tested for mycoplasma contamination.
Cellular viability was monitored by Trypan blue exclusion. Inhibition of [3H]thymidine incorporation into DNA was determined to assess the level of cell proliferation as well as DNA synthesis inhibition. Cells were treated with test samples for four days and then placed into 96-well plates (100 μl) and treated with [3H]thymidine (0.5 μCi/ml, 65 Ci/mmol) for 18 h at 37° C. in a 5% CO2 incubator. Cells then were collected on glass fiber filters using a TOMTEC Harvester 96®. The filters were counted using a Microbeta™ liquid scintillation counter (Wallac, Turku, Finland) with scintillation fluid. Finally, the percentage of [3H]thymidine incorporation per 10^6 cells was calculated by dividing the dpm of sample-treated cells by the dpm of DMSO-treated cells.
(§7) ^aViability was determined by Trypan blue exclusion in duplicate samples. […] Results are expressed as median inhibitory cell concentrations of two independent experiments (±standard deviations).

[2] = Withdrawal assays, growth and differentiation of HL-60 cells; assay type: cell-based, human; conditions: human, HL-60 cells
Experimental: The irreversibility of brusatol effects on growth and differentiation of HL-60 cells was tested using withdrawal assays during a 4-day experiment.
The assay lasted for 4 days (96 h) and then, cells were analyzed for viability and differentiation markers. […] Results are shown as the mean of duplicate samples (±standard deviation).

[3] = Cytotoxicity, viability by Trypan blue exclusion; conditions: human
Experimental: Human blood (20 ml) was collected in heparinized sterile tubes and white blood cells were separated using Ficoll reagent (8 ml/5 ml blood diluted in 15 ml Hank's buffered solution). After centrifugation at low speed (1500 rpm) for 30 min, the white coat was removed and washed 3-times with Hank's buffered solution. The cell pellet was resuspended in RPMI 1640 medium supplemented with 10% FBS. This preparation contained >90% lymphocytes and <5% monocytes, as determined by Wright-Giemsa staining.
Cellular viability was monitored by Trypan blue exclusion.
as §7

SUPB13 = experiment: Cell cycle effects, DNA content by flow cytometry; assay type: cell-based; conditions: Brusatol (25 ng/ml), 24 h
Experimental: (§2) About 10^6 cells from each sample were collected and washed twice with ice-cold PBS, fixed in 70% ethanol, and stored at 4° C. until analysis. The cells were stained with PI (50 μg/ml), treated with DNase-free RNase (10 μg/ml), and subjected to DNA content analysis using an EPICS Coulter flow cytometer. At least 10,000 cells were counted for each sample. The percentage of apoptotic cells was calculated by measuring the area under the sub-diploid (DNA <2 N) peak in the plot of cell number against cellular DNA content.
(§3) Cells were treated with solvent or brusatol (25 ng/ml) for 24 h, fixed in ethanol and stained with PI for flow cytometric analysis as described under “Materials and methods”. At least 10,000 cells were counted. Results are presented as the mean of triplicate samples (±standard deviation). G1=Gap1, S=Synthesis, G2/M=Gap2+Mitosis, Ap=sub-G1 apoptotic peak.

Kasumi-1 [4] = experiment: Cell cycle effects, DNA content by flow cytometry; assay type: cell-based; conditions: Brusatol (25 ng/ml), 24 h
Experimental: as §2, §3

RS4,11 = experiment: Cell cycle effects, DNA content by flow cytometry; assay type: cell-based; conditions: Brusatol (25 ng/ml), 24 h
Experimental: as §2, §3

Reh = experiment: Cell cycle effects, DNA content by flow cytometry; assay type: cell-based; conditions: Brusatol (25 ng/ml), 24 h
Experimental: as §2, §3

NB4 cells = experiment: Membrane phenotype, cell surface antigen by flow cytometry; assay type: cell-based; conditions: Brusatol 10 ng/ml, 4-day protocol
Experimental: as §1
(§4) 3) Determination of cell surface antigen by flow cytometry. Cells (10^6) were washed with PBS and then incubated for 30 min at room temperature with respective monoclonal antibodies, washed with 20 volumes of diluent (PBS with 0.1% sodium azide and 1% BSA), and resuspended in 0.5 ml of fresh diluent for evaluation. Necrotic cells were excluded from the analysis by propidium iodide (PI) staining. The following mAbs (Sigma, St. Louis, Mo.) were used to assess the maturation level of myeloid cell lines: antiCD15 (Leu M1), antiCD-11b (OKM1), antiCD14 and antiCD13. The following mAbs (Sigma, St. Louis, Mo.) were used to assess the maturation level of lymphocytic cell lines: antiCD20, antiHLA-DR and antikappa light chain.
(§5) Cells were induced to differentiate with the indicated concentrations of brusatol using a 4-day protocol and then analyzed for membrane markers of differentiation as described under “Materials and methods”. Results are expressed as the specific mean fluorescence intensity (ratio of antigen antibody flourescence over isotype antibody fluorescence), and represents the mean of two independent studies.

RS4;11 cells = experiment: as above; assay type: cell-based; conditions: Brusatol 25 ng/ml, 4-day protocol
Experimental: as §1, §4, §5

Kasumi-1 [5] = experiment: as above; assay type: cell-based; conditions: 4-day protocol
Experimental: as §1, §4, §5

BV173 [6] = experiment: as above; assay type: cell-based; conditions: 4-day protocol
Experimental: as §1, §4, §5

K562 cells = experiment: as above; assay type: cell-based; conditions: Brusatol 25 ng/ml, 4-day protocol
Experimental: as §1, §4, §5

U937 cells = experiment: as above; assay type: cell-based; conditions: Brusatol 12.5 ng/ml, 4-day protocol
Experimental: as §1, §4, §5

Kasumi-1 [7] = experiment: Cytotoxicity, viability by Trypan blue exclusion; conditions: four days
Experimental: as §6
(§8) Cellular viability was monitored by Trypan blue exclusion. Inhibition of [3H]thymidine incorporation into DNA was determined to assess the level of cell proliferation as well as DNA synthesis inhibition. […] The filters were counted using a Microbeta™ liquid scintillation counter (Wallac, Turku, Finland) with scintillation fluid. Finally, the percentage of [3H]thymidine incorporation per 10^6 cells was calculated by dividing the dpm of sample-treated cells by the dpm of DMSO-treated cells.
as §7

[8] = Cytotoxicity, viability by Trypan blue exclusion; conditions: human, Kasumi-1 cells, Cytotoxicity (IC50, ng/ml), four days
Experimental: as §6, §8, §7

BV173 [9] = experiment: Cytotoxicity, viability by Trypan blue exclusion; conditions: four days
Experimental: as §6, §8, §7

COC(=O)[C@@]12OC[C@]34[C@H]([C@@H](O)[C@@H]1O)[C@@]1(C)CC(=O)C(O)=C(C)[C@@H]1C[C@H]3OC(=O)[C@H](OC(=O)C=C(C)C)[C@@H]24 [compound 1, brusatol]
NBT-reduction, peak induction (HL-60): 75%
IC50 at 4 days [1]: > 0.1 µg/mL
viability at 4 days, 100 ng/ml [1]: ~90%
viability at 48 h, 12.5 ng/ml ([2]; 12.5 ng/ml, 48 h exposure): > 80%
viability at 72 h, 12.5 ng/ml ([2]; 12.5 ng/ml, 72 h exposure): 56%
viability at 96 h, 12.5 ng/ml ([2]; 12.5 ng/ml, 96 h exposure): 45%
selectivity ratio ([2]; 2-day protocol versus 4-day protocol, read-out: increase in selectivity (differentiation vs cytotoxicity)): 10
IC50 at 4 days ([2]; 4-day protocol, read-out: cytotoxic IC50): 0.025 µg/mL (≈ 0.048 µM)
IC50 at 2 days ([2]; 2 day-protocol, read-out: cytotoxic IC50): 0.25 µg/mL (≈ 0.48 µM)
viability at 3 days, 100 ng/ml ([3]; peripheral blood lymphocytes stimulated with concanavalin A): ~90%
IC50 at 3 days ([3]; peripheral human lymphocytes): > 0.1 µg/mL
G1 (SUPB13): G1 = 61.9 ± 2.1
G2/M (SUPB13): G2/M = 8.7 ± 0.3
S (SUPB13): S = 29.4 ± 1.8
G1 (Kasumi-1 [4]): G1 = 77.4 ± 1.8
G2/M (Kasumi-1 [4]): G2/M = 4.5 ± 0.2
S (Kasumi-1 [4]): S = 18.1 ± 2.1
G1 (RS4,11): G1 = 50.9 ± 0.4
G2/M (RS4,11): G2/M = 3.4 ± 0.1
S (RS4,11): S = 45.7 ± 0.2
G1 (Reh): G1 = 78.8 ± 1.2
G2/M (Reh): G2/M= 3.2 ± 0.4
S (Reh): S = 18.0 ± 0.6
CD11b, specific mean fluorescence intensity (NB4 cells): 1.2 ± 0.5
CD13, specific mean fluorescence intensity (NB4 cells): 156.1 ± 54.3
CD14, specific mean fluorescence intensity (NB4 cells): 1.3
CD15, specific mean fluorescence intensity (NB4 cells): 18.5 ± 0.4
CD11b, specific mean fluorescence intensity (RS4;11 cells): 1.2 ± 0.1
CD13, specific mean fluorescence intensity (RS4;11 cells): 1.3 ± 0.2
CD15, specific mean fluorescence intensity (RS4;11 cells): 151.9 ± 42.1
membrane markers of differentiation, change between control and treated cells (Kasumi-1 [5]): did not show any changes
membrane markers of differentiation, change between control and treated cells (BV173 [6]): did not show any changes
CD11b, specific mean fluorescence intensity (K562 cells): 1.0 ± 0.1
CD13, specific mean fluorescence intensity (K562 cells): 1.4 ± 0.2
CD14, specific mean fluorescence intensity (K562 cells): 1.0
CD15, specific mean fluorescence intensity (K562 cells): 4.6 ± 1.1
CD11b, specific mean fluorescence intensity (U937 cells): 2.5 ± 0.2
CD13, specific mean fluorescence intensity (U937 cells): 55.7 ± 1.1
CD14, specific mean fluorescence intensity (U937 cells): 9.6
CD15, specific mean fluorescence intensity (U937 cells): 28.5 ± 4.3
Cytotoxicity (IC50, ng/ml) (Kasumi-1 [7]): 75 ± 5.1 ng/mL
IC50 at 4 days [8]: 0.05 to 0.1 µg/mL (≈ 0.0961 to 0.192 µM)
Cytotoxicity (IC50, ng/ml) (BV173 [9]; listed as Brusatol): 5 ± 1.4 ng/mL
Cytotoxicity (IC50, ng/ml) (BV173 [9]; listed as brusatol): less than 25 ng/ml
